Patent publication US20250387355A1 (SpringWorks Therapeutics Inc., priority 2024, published 2025)

Test system: NF1-associated plexiform neurofibromas (PNs)
Assay: Phase 2b trial of mirdametinib: efficacy by volumetric MRI per REiNS criteria (BICR)
Format: in vivo, human
Details: for DoR ≥12 months, %: responders, first DoR line (r12)
Method: Study treatment was administered orally at a twice daily (BID) dose specified in the table below. Dosing was on a 28-day Cycle (4-week course) with a 3 week on/1 week off schedule. The treatment period will last for up to 24 Cycles followed by a 30-day Safety Follow-Up period.
A partial response was defined as PN decrease ≥20% compared to baseline using centrally read MRI volumetric analysis.
The major efficacy outcome measure was confirmed objective response rate (ORR), defined as the percentage of patients with complete response (disappearance of the target PN) or confirmed partial response (≥20% reduction in PN volume confirmed at a subsequent tumor assessment within 2-6 months during the 24-cycle treatment phase). Responses were assessed by blinded independent central review (BICR) using volumetric magnetic resonance imaging (MRI) analysis per Response Evaluation in Neurofibromatosis and Schwannomatosis (REiNS) criteria. A secondary efficacy objective was to determine the duration of response for patients who achieved a confirmed objective response.

Q: Which “Confirmed Complete Response, n (%)” value (Adult (N = 58)) does the source give for `O=C(NOC[C@H](O)CO)c1ccc(F)c(F)c1Nc1ccc(I)cc1F` (single isomer, unassigned) [mirdametinib] here?
A: 0

Q: What about the “Confirmed Objective Response Rate per REINS criteria by BICR, (%)” value (Adult (N = 58)) of the same compound?
A: (41) %

Q: What about the “Confirmed Partial Response, (%)” value (Adult (N = 58)) of the same compound?
A: (41) %

Q: What about the “DoR ≥12 months, %” value (Adult) of the same compound?
A: (88%)

Q: And the “Confirmed Complete Response, n (%)” value (Pediatric (N = 56))?
A: 0

Q: What about the “Confirmed Objective Response Rate per REINS criteria by BICR, (%)” value (Pediatric (N = 56)) of the same compound?
A: (52) %

Q: And the “Confirmed Partial Response, (%)” value (Pediatric (N = 56))?
A: (52) %

Q: What about the “DoR ≥12 months, %” value (Pediatric) of the same compound?
A: (90%)
